Molecular target: T1, crosslinked smooth muscle actomyosin (chicken gizzard smooth muscle myosin subfragment-1 crosslinked to cardiac or skeletal actin) (Gallus gallus, UniProt P10587)
T1 construct: chicken gizzard smooth muscle myosin subfragment-1; from tissue; host or cells: chicken gizzard
Test: Lead optimization pyruvate kinase/horseradish peroxidase/pyruvate oxidase-coupled ATPase assay (compound dose response)
Type: biochemical
Details: read-out: IC50 Arithmetic Mean
In short: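 The ATPase used chicken gizzard smooth muscle myosin S1 chemically crosslinked to cardiac or skeletal actin, titrated to a set hydrolysis rate. It was coupled via pyruvate kinase/pyruvate oxidase/HRP in 12 mM K-PIPES pH 7.00 (22 °C) with 0.15 mM ATP, 2 mM MgCl2, 100 mM KCl and 0.1 mM Amplex Red. Fluorescence was read at ex 480/em 615 nm, and IC50 came from a 4-parameter fit.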

IC50 [nM]	SMILES
440	NCC(=O)N1CCC(COC(=O)Nc2ccc(C(F)(F)F)cc2Cl)(C(=O)NCc2ccccc2Cl)CC1 [[1-(2-aminoacetyl)-4-({N-[2-chloro-4-(trifluoromethyl)phenyl]carbamoyloxy}methyl)(4-piperidyl)]-N-[(2-chlorophenyl)methyl]carboxamide]
138	N[C@@H](CO)C(=O)N1CCC(COC(=O)Nc2ccc(C(F)(F)F)cc2)(C(=O)NCc2ccccc2Cl)CC1 [[1-((2S)-2-amino-3-hydroxypropanoyl)-4-({N-[4-(trifluoromethyl)phenyl]carbamoyloxy}methyl)(4-piperidyl)]-N-[(2-chlorophenyl)methyl]carboxamide]
18300	O=C(Nc1cc(Cl)cc(Cl)c1)OCC1(C(=O)NCc2ccccc2Cl)CCOCC1 [(4-{[N-(3,5-dichlorophenyl)carbamoyloxy]methyl}(2H-3,4,5,6-tetrahydropyran-4-yl))-N-[(2-chlorophenyl)methyl]carboxamide]
361	O=C(Nc1ccc2c(c1)CCC2)OCC1(C(=O)NCc2ccccc2Cl)CCOCC1 [N-[(2-chlorophenyl)methyl]{4-[(N-indan-5-ylcarbamoyloxy)methyl](2H-3,4,5,6-tetrahydropyran-4-yl)}carboxamide]
7630	CCc1ccc(N(C)C(=O)OCC2(C(=O)NCc3ccccc3Cl)CCOCC2)cc1 [N-[(2-chlorophenyl)methyl](4-{[N-(4-ethylphenyl)-N-methylcarbamoyloxy]methyl}(2H-3,4,5,6-tetrahydropyran-4-yl))carboxamide]
1970	Cc1ccc(NC(=O)OCC2(C(=O)NCc3ccccc3Cl)CCN(C(=O)CN)CC2)cc1C(F)(F)F [[1-(2-aminoacetyl)-4-({N-[4-methyl-3-(trifluoromethyl)phenyl]carbamoyloxy}methyl)(4-piperidyl)]-N-[(2-chlorophenyl)methyl]carboxamide]
1810	COC(=O)c1ccc(NC(=O)OCC2(C(=O)NCc3ccccc3Cl)CCN(C(=O)CN)CC2)cc1 [methyl 4-{[(1-(2-aminoacetyl)-4-{N-[(2-chlorophenyl)methyl]carbamoyl}-4-piperidyl)methoxy]carbonylamino}benzoate]
399	CCc1ccc(NC(=O)OCC2(C(=O)NCc3ccccc3Cl)CCCN(C(=O)CO)C2)cc1 (stereo not shown) [N-[(2-chlorophenyl)methyl](3-{[N-(4-ethylphenyl)carbamoyloxy]methyl}-1-(2-hydroxyacetyl)(3-piperidyl))carboxamide]
1280	CCc1ccc(NC(=O)OCC2(C(=O)NCc3ccc(Cl)cc3)CCN(C(=O)CN)CC2)cc1 [[(1-(2-aminoacetyl)-4-{N-[(4-chlorophenyl)methyl]carbamoyl}(4-piperidyl))methoxy]-N-(4-ethylphenyl)carboxamide]
2540	CCc1ccc(NC(=O)OCCN(CCCN)C(=O)NCc2ccccc2Cl)cc1 [N-(3-aminopropyl){[(2-chlorophenyl)methyl]amino}-N-{2-[N-(4-ethylphenyl)carbamoyloxy]ethyl}carboxamide]
569	NCC(=O)N1CCC(COC(=O)Nc2ccc(Cl)cc2)(C(=O)NCc2ccccc2Cl)CC1 [(1-(2-aminoacetyl)-4-{[N-(4-chlorophenyl)carbamoyloxy]methyl}(4-piperidyl))-N-[(2-chlorophenyl)methyl]carboxamide]
4370	CCc1ccc(NC(=O)OCCC(NC(=O)CN)C(=O)NCc2ccccc2Cl)cc1 (stereo not shown) [2-(2-aminoacetylamino)-N-[(2-chlorophenyl)methyl]-4-[N-(4-ethylphenyl)carbamoyloxy]butanamide]
1480	CCc1ccc(NC(=O)OCC2(C(=O)NCc3ccccc3Cl)CCCN(C(=O)[C@@H](N)CO)C2)cc1 (stereo partly drawn) [(1-((2S)-2-amino-3-hydroxypropanoyl)-3-{[N-(4-ethylphenyl)carbamoyloxy]methyl}(3-piperidyl))-N-[(2-chlorophenyl)methyl]carboxamide]
285	NCC(=O)N1CCC(COC(=O)Nc2ccc(C(F)(F)F)cc2)(C(=O)NCc2ccccc2Cl)CC1 [[1-(2-aminoacetyl)-4-({N-[4-(trifluoromethyl)phenyl]carbamoyloxy}methyl)(4-piperidyl)]-N-[(2-chlorophenyl)methyl]carboxamide]
235	CCc1ccc(NC(=O)OCCC(C)(C)C(=O)NCc2ccccc2Cl)cc1 [N-[(2-chlorophenyl)methyl]-4-[N-(4-ethylphenyl)carbamoyloxy]-2,2-dimethylbutanamide]
576	CCc1ccc(NC(=O)OCC2(C(=O)NCc3ccc(C)cc3C)CCN(C(=O)CN)CC2)cc1 [[(1-(2-aminoacetyl)-4-{N-[(2,4-dimethylphenyl)methyl]carbamoyl}(4-piperidyl))methoxy]-N-(4-ethylphenyl)carboxamide]
336	CCc1ccc(NC(=O)OCC2(C(=O)NCc3ccccc3Cl)CCN(C(=O)OCCN)CC2)cc1 [2-aminoethyl 4-{N-[(2-chlorophenyl)methyl]carbamoyl}-4-{[N-(4-ethylphenyl)carbamoyloxy]methyl}piperidinecarboxylate]
16300	CCc1ccc(NC(=O)OCCN(CCNC)C(=O)NCc2ccccc2Cl)cc1 [{[(2-chlorophenyl)methyl]amino}-N-{2-[N-(4-ethylphenyl)carbamoyloxy]ethyl}-N-[2-(methylamino)ethyl]carboxamide]
167	CCc1ccc(NC(=O)OCC2(C(=O)NCc3ccccc3C)CCN(C(=O)CN)CC2)cc1 [(1-(2-aminoacetyl)-4-{[N-(4-ethylphenyl)carbamoyloxy]methyl}(4-piperidyl))-N-[(2-methylphenyl)methyl]carboxamide]
99	CCc1ccc(NC(=O)OCC2(C(=O)NCc3cccc(Cl)c3F)CCN(C(=O)CN)CC2)cc1 [[(1-(2-aminoacetyl)-4-{N-[(3-chloro-2-fluorophenyl)methyl]carbamoyl}(4-piperidyl))methoxy]-N-(4-ethylphenyl)carboxamide]
16400	CCc1ccc(NC(=O)N(CCN)CC2(C(=O)NCc3ccccc3Cl)CCN(C(=O)CN)CC2)cc1 [N-[(1-(2-aminoacetyl)-4-{N-[(2-chlorophenyl)methyl]carbamoyl}(4-piperidyl))methyl]-N-(2-aminoethyl)[(4-ethylphenyl)amino]carboxamide]
16800	CCc1ccc(NC(=O)N[C@H]2CCCC[C@@H]2C(=O)NCc2ccccc2Cl)cc1 [((1S,2S)-2-{[(4-ethylphenyl)amino]carbonylamino}cyclohexyl)-N-[(2-chlorophenyl)methyl]carboxamide]

SMILES	IC50 [nM]
Cc1c(Cl)cccc1CNC(=O)C1(COC(=O)Nc2ccc(C(F)(F)F)cc2)CCN(C(=O)CNC(=O)OC(C)(C)C)CC1 [[(1-{2-[(tert-butoxy)carbonylamino]acetyl}-4-{N-[(3-chloro-2-methylphenyl)methyl]carbamoyl}(4-piperidyl))methoxy]-N-[4-(trifluoromethyl)phenyl]carboxamide]	5640
CCc1ccc(NC(=O)OCC2(C(=O)NCc3ccccc3Cl)CCN(C(=O)CCCNC(=O)OC(C)(C)C)CC2)cc1 [(tert-butoxy)-N-[4-(4-{N-[(2-chlorophenyl)methyl]carbamoyl}-4-{[N-(4-ethylphenyl)carbamoyloxy]methyl}piperidyl)-4-oxobutyl]carboxamide]	481
CCc1ccc(NC(=O)OCC2(C(=O)NCc3ccc(F)cc3Cl)CCN(C(=O)CNC(=O)OC(C)(C)C)CC2)cc1 [[(1-{2-[(tert-butoxy)carbonylamino]acetyl}-4-{N-[(2-chloro-4-fluorophenyl)methyl]carbamoyl}(4-piperidyl))methoxy]-N-(4-ethylphenyl)carboxamide]	1080

Reference: US8071625B2, “Certain chemical entities, compositions, and methods” (Cytokinetics, Inc., priority 2006, dated 2011)
